This passage reports IC50 results from BindingDB's records for doi:10.1016/s0960-894x(00)00312-7 (Signal Pharmaceuticals, 2000).

One may read the IC50 as the concentration needed to halve the response being measured. Lower therefore signals greater potency.

In this assay the target is Protein c-Fos/Transcription factor Jun (Homo sapiens, UniProt P05412+P01100). Kind of assay: Inhibition of AP-1 (activator protein-1) mediated transcriptional activation in Jurkat T-cells.
Sequence of Protein c-Fos/Transcription factor Jun (P05412 whole entry): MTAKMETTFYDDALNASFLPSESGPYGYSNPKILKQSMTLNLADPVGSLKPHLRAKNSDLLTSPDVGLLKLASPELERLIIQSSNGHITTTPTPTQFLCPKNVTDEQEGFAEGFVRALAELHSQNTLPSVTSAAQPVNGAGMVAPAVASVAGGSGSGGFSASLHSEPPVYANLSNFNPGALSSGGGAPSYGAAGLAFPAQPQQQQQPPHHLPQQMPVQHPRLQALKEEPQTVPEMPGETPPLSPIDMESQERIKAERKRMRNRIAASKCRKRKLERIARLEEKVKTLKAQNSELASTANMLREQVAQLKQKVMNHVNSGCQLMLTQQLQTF
Sequence of Protein c-Fos/Transcription factor Jun (P01100 whole entry): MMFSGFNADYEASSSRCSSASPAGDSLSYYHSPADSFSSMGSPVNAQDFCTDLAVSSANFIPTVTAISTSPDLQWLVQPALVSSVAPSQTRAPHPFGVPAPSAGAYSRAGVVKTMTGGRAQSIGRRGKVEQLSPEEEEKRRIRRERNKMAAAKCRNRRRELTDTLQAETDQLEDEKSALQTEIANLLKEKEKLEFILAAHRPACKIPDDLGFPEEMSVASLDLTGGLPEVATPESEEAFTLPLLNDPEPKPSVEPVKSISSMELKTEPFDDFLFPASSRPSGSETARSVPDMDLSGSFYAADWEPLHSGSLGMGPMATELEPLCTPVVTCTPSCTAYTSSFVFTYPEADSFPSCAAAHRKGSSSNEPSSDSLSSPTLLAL

In the case of `CC1=CC(=O)N(Nc2nc(-c3cccs3)ncc2C#N)C1=O` [4-(3-Methyl-2,5-dioxo-2,5-dihydro-pyrrol-1-ylamino)-2-thiophen-2-yl-pyrimidine-5-carbonitrile], the 50% inhibitory concentration (IC50) was determined as 5000 nM.
Molecule `CCOC(=O)c1cnc(CC)nc1NN1C(=O)C=C(C)C1=O` [2-Ethyl-4-(3-methyl-2,5-dioxo-2,5-dihydro-pyrrol-1-ylamino)-pyrimidine-5-carboxylic acid ethyl ester] displayed an IC50 of 10000 nM.
In the case of `CCOC(=O)c1cnc(-c2cc(Cl)nc(Cl)c2)nc1NN1C(=O)C=C(C)C1=O` [ethyl 2-(2,6-dichloropyridin-4-yl)-4-(3-methyl-2,5-dioxo-2H-pyrrol-1(5H)-ylamino)pyrimidine-5-carboxylate] it was 2000 nM.
The molecule `CCOC(=O)c1cnc(C)nc1NN1C(=O)C=C(C)C1=O` [2-Methyl-4-(3-methyl-2,5-dioxo-2,5-dihydro-pyrrol-1-ylamino)-pyrimidine-5-carboxylic acid ethyl ester] gave a half-maximal inhibitory concentration (IC50) of 16000 nM.
In the case of `CCOC(=O)c1cnc(-c2ccccc2)nc1N(C(C)=O)N1C(=O)C=C(C)C1=O` [4-[Acetyl-(3-methyl-2,5-dioxo-2,5-dihydro-pyrrol-1-yl)-amino]-2-phenyl-pyrimidine-5-carboxylic acid ethyl ester] it was 4000 nM.
Then `CCOC(=O)c1cnc(-c2ccc(Cl)cc2)nc1NN1C(=O)C=C(C)C1=O` [ethyl 2-(4-chlorophenyl)-4-(3-methyl-2,5-dioxo-2H-pyrrol-1(5H)-ylamino)pyrimidine-5-carboxylate], with 300 nM; and `CCOC(=O)c1cnc(-c2ccc(Cl)s2)nc1NN1C(=O)C=C(C)C1=O` [ethyl 2-(5-chlorothiophen-2-yl)-4-(3-methyl-2,5-dioxo-2H-pyrrol-1(5H)-ylamino)pyrimidine-5-carboxylate], with 300 nM.
In turn, `CCOC(=O)c1cnc(-c2cccc(OC)c2)nc1NN1C(=O)C=C(C)C1=O` [ethyl 2-(3-methoxyphenyl)-4-(3-methyl-2,5-dioxo-2H-pyrrol-1(5H)-ylamino)pyrimidine-5-carboxylate] came in with an IC50 of 5000 nM.
On to `CCOC(=O)c1cnc(Sc2ccccc2)nc1NN1C(=O)C=C(C)C1=O` [ethyl 4-(3-methyl-2,5-dioxo-2,5-dihydro-1H-pyrrol-1-ylamino)-2-(phenylthio)pyrimidine-5-carboxylate], for which 1000 nM corresponded to half-maximal inhibition (IC50).
`CCOC(=O)c1cnc(CC)nc1N(C)N1C(=O)C=C(C)C1=O` [ethyl 2-ethyl-4-(methyl(3-methyl-2,5-dioxo-2H-pyrrol-1(5H)-yl)amino)pyrimidine-5-carboxylate] gave a half-inhibitory concentration (IC50) of 10000 nM. Compared with the last molecule, the IC50 is about 10-fold higher.
Consider `CCOC(=O)c1cnc(-c2csc(C)n2)nc1NN1C(=O)C=C(C)C1=O` [4-(3-Methyl-2,5-dioxo-2,5-dihydro-pyrrol-1-ylamino)-2-(2-methyl-thiazol-4-yl)-pyrimidine-5-carboxylic acid ethyl ester], for which the half-inhibitory concentration (IC50) came out at 8000 nM.
In the case of `CCOC(=O)c1cnc(-c2cccc([N+](=O)[O-])c2)nc1NN1C(=O)C=C(C)C1=O` [4-(3-Methyl-2,5-dioxo-2,5-dihydro-pyrrol-1-ylamino)-2-(3-nitro-phenyl)-pyrimidine-5-carboxylic acid ethyl ester] it was 7000 nM; in that of `CCOC(=O)c1cnc(-c2cc3ccccc3s2)nc1NN1C(=O)C=C(C)C1=O` [2-Benzo[b]thiophen-2-yl-4-(3-methyl-2,5-dioxo-2,5-dihydro-pyrrol-1-ylamino)-pyrimidine-5-carboxylic acid ethyl ester], 4000 nM.
Consider `CCOC(=O)c1cnc(-c2ccccc2)nc1NN1C(=O)C=C(C)C1=O` [4-(3-Methyl-2,5-dioxo-2,5-dihydro-pyrrol-1-ylamino)-2-phenyl-pyrimidine-5-carboxylic acid ethyl ester], for which the half-maximal inhibitory concentration (IC50) amounted to 100 nM.
Then `CCOC(=O)c1cnc(Cc2ccccc2)nc1NN1C(=O)C=C(C)C1=O` [ethyl 2-benzyl-4-(3-methyl-2,5-dioxo-2H-pyrrol-1(5H)-ylamino)pyrimidine-5-carboxylate], with 7000 nM; and `CCOC(=O)c1cnc(-c2ccccc2)nc1N(C)N1C(=O)C=C(C)C1=O` [ethyl 4-(methyl(3-methyl-2,5-dioxo-2H-pyrrol-1(5H)-yl)amino)-2-phenylpyrimidine-5-carboxylate], with 2000 nM; and `CCOC(=O)c1cnc(-c2ccc(C(F)(F)F)cc2)nc1NN1C(=O)C=C(C)C1=O` [4-(3-Methyl-2,5-dioxo-2,5-dihydro-pyrrol-1-ylamino)-2-(4-trifluoromethyl-phenyl)-pyrimidine-5-carboxylic acid ethyl ester], with 400 nM.
Take `CCOC(=O)c1cnc(C2CC2)nc1NN1C(=O)C=C(C)C1=O` [2-Cyclopropyl-4-(3-methyl-2,5-dioxo-2,5-dihydro-pyrrol-1-ylamino)-pyrimidine-5-carboxylic acid ethyl ester]: the IC50 stood at 1000 nM. Compared with the last molecule, the IC50 is about 2.5-fold higher.
Then `CC1=CC(=O)N(Nc2nc(-c3cccs3)ncc2-c2nnn(C)n2)C1=O` [3-methyl-1-(5-(2-methyl-2H-tetrazol-5-yl)-2-(thiophen-2-yl)pyrimidin-4-ylamino)-1H-pyrrole-2,5-dione], with 200 nM; and `CCOC(=O)c1cnc(-n2nc(C)cc2C)nc1NN1C(=O)C=C(C)C1=O` [ethyl 2-(3,5-dimethyl-1H-pyrazol-1-yl)-4-(3-methyl-2,5-dioxo-2H-pyrrol-1(5H)-ylamino)pyrimidine-5-carboxylate], with 10000 nM; and `CC1=CC(=O)N(Nc2nc(-c3cccs3)ncc2-c2nc(C)co2)C1=O` [3-methyl-1-(5-(4-methyloxazol-2-yl)-2-(thiophen-2-yl)pyrimidin-4-ylamino)-1H-pyrrole-2,5-dione], with 200 nM.
Then `CCOC(=O)c1cnc(-c2cccs2)nc1NN1C(=O)C=C(C)C1=O` [ethyl 4-(3-methyl-2,5-dioxo-2H-pyrrol-1(5H)-ylamino)-2-(thiophen-2-yl)pyrimidine-5-carboxylate], with 20 nM.
On to `CCOC(=O)c1cnc(C(F)(F)F)nc1NN1C(=O)C=CC1=O` [ethyl 4-(2,5-dioxo-2H-pyrrol-1(5H)-ylamino)-2-(trifluoromethyl)pyrimidine-5-carboxylate], for which the IC50 was determined as 10000 nM.
Consider `CCOC(=O)c1cnc(-c2ccncc2)nc1NN1C(=O)C=C(C)C1=O` [ethyl 4-(3-methyl-2,5-dioxo-2H-pyrrol-1(5H)-ylamino)-2-(pyridin-4-yl)pyrimidine-5-carboxylate], for which the IC50 came to 6000 nM.
In the case of `CCOC(=O)c1cnc(-c2ccc(F)cc2)nc1N(C)N1C(=O)C=C(C)C1=O` [2-(4-Fluoro-phenyl)-4-[methyl-(3-methyl-2,5-dioxo-2,5-dihydro-pyrrol-1-yl)-amino]-pyrimidine-5-carboxylic acid ethyl ester] it was 3000 nM.
In the case of `CCOC(=O)c1cnc(SC)nc1NN1C(=O)C=C(C)C1=O` [4-(3-Methyl-2,5-dioxo-2,5-dihydro-pyrrol-1-ylamino)-2-methylsulfanyl-pyrimidine-5-carboxylic acid ethyl ester] it was 200 nM; in that of `CCOC(=O)c1cnc(-c2cccs2)nc1N(C)N1C(=O)C=C(C)C1=O` [ethyl 4-(methyl(3-methyl-2,5-dioxo-2H-pyrrol-1(5H)-yl)amino)-2-(thiophen-2-yl)pyrimidine-5-carboxylate], 1000 nM.
As to `CCOC(=O)c1cnc(S(=O)(=O)c2ccccc2)nc1NN1C(=O)C=C(C)C1=O` [2-Benzenesulfonyl-4-(3-methyl-2,5-dioxo-2,5-dihydro-pyrrol-1-ylamino)-pyrimidine-5-carboxylic acid ethyl ester], half-maximal inhibition (IC50) was put at 10000 nM.
Then `CCOC(=O)c1cnc(C(F)(F)F)nc1NN1C(=O)C=C(C)C1=O` [4-(3-Methyl-2,5-dioxo-2,5-dihydro-pyrrol-1-ylamino)-2-trifluoromethyl-pyrimidine-5-carboxylic acid ethyl ester], with 1000 nM; and `CCOC(=O)c1cnc(CC2=CCCCC2)nc1NN1C(=O)C=C(C)C1=O` [2-Cyclohex-1-enylmethyl-4-(3-methyl-2,5-dioxo-2,5-dihydro-pyrrol-1-ylamino)-pyrimidine-5-carboxylic acid ethyl ester], with 2000 nM.
In the case of `CCOC(=O)c1cnc(-c2cccc(Br)c2)nc1NN1C(=O)C=C(C)C1=O` [2-(3-Bromo-phenyl)-4-(3-methyl-2,5-dioxo-2,5-dihydro-pyrrol-1-ylamino)-pyrimidine-5-carboxylic acid ethyl ester] it was 700 nM.
Turning to `CC1=CC(=O)N(Nc2nc(-c3cccs3)ncc2-c2cc(C)no2)C1=O` [3-methyl-1-(5-(3-methylisoxazol-5-yl)-2-(thiophen-2-yl)pyrimidin-4-ylamino)-1H-pyrrole-2,5-dione], the midpoint of inhibition, the IC50, lay at 300 nM.
Regarding `CCOC(=O)c1cnc(-c2ccsc2)nc1NN1C(=O)C=C(C)C1=O` [ethyl 4-(3-methyl-2,5-dioxo-2H-pyrrol-1(5H)-ylamino)-2-(thiophen-3-yl)pyrimidine-5-carboxylate], the concentration for half-maximal inhibition (IC50) was found to be 100 nM.
In the case of `CCOC(=O)c1cnc(C(C)(C)C)nc1NN1C(=O)C=C(C)C1=O` [ethyl 2-tert-butyl-4-(3-methyl-2,5-dioxo-2H-pyrrol-1(5H)-ylamino)pyrimidine-5-carboxylate], the 50% inhibitory concentration (IC50) is 1000 nM. This IC50 lies about 10-fold higher than the previous one.
In the case of `CCOC(=O)c1cnc(-c2ccc(OC)cc2)nc1NN1C(=O)C=C(C)C1=O` [2-(4-Methoxy-phenyl)-4-(3-methyl-2,5-dioxo-2,5-dihydro-pyrrol-1-ylamino)-pyrimidine-5-carboxylic acid ethyl ester] it was 900 nM; in that of `CC1=CC(=O)N(Nc2nc(-c3cccs3)ncc2C2=NCCO2)C1=O` [1-[5-(4,5-Dihydro-oxazol-2-yl)-2-thiophen-2-yl-pyrimidin-4-ylamino]-3-methyl-pyrrole-2,5-dione], 200 nM; in that of `CCOC(=O)c1cnc(C(F)(F)F)nc1NN1C(=O)C(C)=C(C)C1=O` [ethyl 4-(3,4-dimethyl-2,5-dioxo-2H-pyrrol-1(5H)-ylamino)-2-(trifluoromethyl)pyrimidine-5-carboxylate], 10000 nM.
`CC1=CC(=O)N(Nc2nc(-c3cccs3)ncc2-c2nnc(C)o2)C1=O` [3-methyl-1-(5-(5-methyl-1,3,4-oxadiazol-2-yl)-2-(thiophen-2-yl)pyrimidin-4-ylamino)-1H-pyrrole-2,5-dione] gave an IC50 of 300 nM.
